According to publication PMC11957517, “Efficient production of hydroxysalidroside in Escherichia coli via enhanced glycosylation and semi-rational design of UGT85A1” (Synthetic and Systems Biotechnology, 2025):

Tests used:
[1] = target: T1, UGT33 (Rhodiola rosea, UniProt A0A2I6B3R9); experiment: whole-cell conversion in E. coli, HPLC; assay type: cell-based; conditions: intracellular UDPG, pgm and galU overexpressed, 48 h
T1 construct: synthesized gene in pETDuet-1, E. coli BL21(DE3) whole cells with pCDFDuet-pgm-galU
T1 sequence (A0A2I6B3R9 1-498): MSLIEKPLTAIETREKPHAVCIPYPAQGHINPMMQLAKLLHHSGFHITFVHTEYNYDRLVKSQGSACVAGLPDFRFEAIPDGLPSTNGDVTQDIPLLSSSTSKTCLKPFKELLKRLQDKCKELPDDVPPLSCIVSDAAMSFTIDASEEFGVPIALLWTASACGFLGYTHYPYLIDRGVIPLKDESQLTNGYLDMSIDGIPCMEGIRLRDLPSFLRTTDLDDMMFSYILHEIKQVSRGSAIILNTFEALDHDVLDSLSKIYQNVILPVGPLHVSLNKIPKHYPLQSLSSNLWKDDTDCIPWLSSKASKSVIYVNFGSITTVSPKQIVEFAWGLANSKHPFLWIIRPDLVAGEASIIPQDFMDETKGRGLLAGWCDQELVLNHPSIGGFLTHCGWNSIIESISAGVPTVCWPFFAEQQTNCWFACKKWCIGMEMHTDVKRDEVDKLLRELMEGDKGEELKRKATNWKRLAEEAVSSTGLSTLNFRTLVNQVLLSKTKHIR

[2] = target: T2, UGT13 (Oryza sativa, UniProt Q6Z684); experiment: whole-cell conversion in E. coli, HPLC; assay type: cell-based; conditions: intracellular UDPG, pgm and galU overexpressed, 48 h
T2 construct: synthesized gene in pETDuet-1, E. coli BL21(DE3) whole cells with pCDFDuet-pgm-galU
T2 sequence (Q6Z684 1-485): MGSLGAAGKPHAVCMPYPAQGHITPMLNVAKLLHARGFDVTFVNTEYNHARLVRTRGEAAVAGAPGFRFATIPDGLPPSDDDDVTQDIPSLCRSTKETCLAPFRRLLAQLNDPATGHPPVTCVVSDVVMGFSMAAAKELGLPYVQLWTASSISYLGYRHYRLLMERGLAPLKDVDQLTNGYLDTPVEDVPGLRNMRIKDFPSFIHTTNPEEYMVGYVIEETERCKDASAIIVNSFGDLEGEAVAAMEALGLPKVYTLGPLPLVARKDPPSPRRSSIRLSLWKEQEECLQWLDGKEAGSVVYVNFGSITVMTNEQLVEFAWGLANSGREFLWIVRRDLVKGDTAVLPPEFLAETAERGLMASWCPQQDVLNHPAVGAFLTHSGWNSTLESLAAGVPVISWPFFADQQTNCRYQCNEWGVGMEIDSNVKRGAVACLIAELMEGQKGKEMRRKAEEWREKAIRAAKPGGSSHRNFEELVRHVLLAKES

In the case of `OCCc1ccc(O)c(O)c1` [hydroxytyrosol], the “whole-cell conversion in E. coli, HPLC” value [1] is reported as “all these enzymes could catalyze the synthesis of hydroxysalidroside” and the “whole-cell conversion in E. coli, HPLC” value [2] is reported as “all these enzymes could catalyze the synthesis of hydroxysalidroside”.
